Where two headings read alike, the source gives them in different places.
Key:
[1] = Photodegradation (photostability) under xenon lamp irradiation; format: physicochemical; details: same irradiation conditions as in the biological studies
Protocol: The photostability of porphyrins was investigated following the measurement of their optical absorption in aqueous solutions. Continuous irradiation of an aerated solution were carried out using the xenon lamp (XBO-150) through the 10 cm water filter and bandpass filter transmitting within >400 nm range, delivering 75 mW/cm^2. The reaction progress was monitored by UV/Vis spectroscopy using a Hewlett Packard HP8453 spectrophotometer.

[2] = n-Octanol/PBS partition coefficient, shake-flask; format: physicochemical; details: modified shake-flask
Protocol: The n-octanol/PBS partition coefficients were measured following shake-flask method with minor modifications. The photosensitizers were dissolved in n-octanol previously saturated with a solution of PBS. The same volume of PBS saturated with n-octanol was added and mixed on a vortex device and then the phases were separated by centrifugation. Next, the PBS/n-octanol phase was taken and diluted to obtain 0.5% of PBS/n-octanol content in the final solution. This solution was left into the ultrasonic bath. The fluorescence of each solution was measured using Fluorescence Spectrometer LS 55 (Perkin Elmer) and compared with calibration curve to obtain the concentration of the photosensitizer. Partition coefficients were calculated from the ratio coct/cPBS, where coct and cPBS are the concentrations of the porphyrin derivatives in the n-octanol and in the PBS.

E. coli (K12) = experiment: Photodynamic inactivation of microorganisms, CFU; format: cell-based; details: PDI 10 J/cm^2, 420±20 nm, concentration not given
Protocol: (§1) The microorganisms used in PDI were: S. aureus (8325–4), E. faecalis (ATCC29212), E. coli (K12), P. aeruginosa (ATCC19660), S. marcescens (ATCC14756) and C. albicans (DAY286). The planctonic bacteria cells were cultured in brain heart infusion broth (Sigma-Aldrich) and LB Broth/Lennox (BioShop Lab Science Products) in an orbital incubator (37°C, 130 rpm), until the optical density reached 0.5, which corresponds to approximately 10^7 CFU per mL. The fungal yeasts were cultured in YPD Broth (BioShop) with overnight aeration at 30°C to reach ca. 10^6 CFU/mL. For PDI experiments cell suspensions of bacteria or fungal yeasts were incubated with various concentrations of the porphyrins at pH 7.4 (PBS) for 1 h in the dark at room temperature. Aliquots (1 mL) were transferred to a 12-well plate and illuminated with a blue light. We used blue-LED array (420±20 nm) to deliver a light dose of 10 J/cm^2 (measured with a power meter). Cells treated with photosensitizers in the dark were incubated covered with aluminum foil for the same time as the PDI groups (1 h). After illumination (or dark incubation) samples were shaken, diluted in PBS, mixed and plated (LB agar). Aliquots were taken from each well to determine the CFU value. Plates were streaked in triplicate and incubated for 12–36 h at 30 °C (for fungal yeasts) or 37 °C (for bacteria) in the dark to allow colony formation.

[3] = test system: P. aeruginosa (ATCC19660); experiment: Photodynamic inactivation of microorganisms, CFU; format: cell-based; details: PDI 10 J/cm^2, 420±20 nm, concentration not given
Protocol: as §1

HSA = HSA (Homo sapiens, UniProt P02768); experiment: Binding to HSA by fluorescence quenching (Stern-Volmer, Scatchard); details: for KSV (Stern-Volmer constant), HSA: HSA fluorescence quenching, PBS, room temperature; for n (number of binding sites), HSA: Scatchard analysis
Protocol: The binding of the PS to HSA was studied by spectrofluorometry at room temperature. An aqueous (phosphate buffer saline, PBS) solution of HSA was titrated with varying concentrations of the respective porphyrin solutions. HSA was excited at 295 nm and fluorescence was recorded between 300 nm and 400 nm. The systematic lowering of HSA fluorescence with increasing photosensitizer concentrations was noted and used in the determination of the binding constants and the number of binding sites on HSA according to Scatchard equation. The changes in HSA fluorescence intensity were related to porphyrin concentrations by the Stern-Volmer relationship. The binding constant (Kb) of PS to lipoproteins was also determined using the spectroscopic titration method. The sets of steady-state emission spectra of PBS solutions with different concentrations of HDL and LDL, to which the porphyrin (5 μM) was added were measured. The fluorescence intensity of the dye increased upon its partitioning into the lipoproteins. To obtain Kb, F versus [L] data were plotted and fitted to by a nonlinear regression routine.

[4] = Fluorescence emission and fluorescence quantum yield (comparative method); format: physicochemical; details: EtOH, TPP as standard
Protocol: (§2) Fluorescence emission spectra were recorded from 550 nm to 750 nm with excitation at Soret band (λ≈420 nm). The excitation and emission slits were both set to 8 nm and scanning speed to 50 nm/min. Fluorescence spectra were recorded with a Perkin Elmer Fluorescence Spectrometer LS 55. Determination of fluorescence quantum yields: ΦF of studied photosensitizers was determined using the comparative method according to the equation: ΦF=ΦFStd⋅FAStdn^2/FStdAnStd2, (1) where F and FStd are the areas under the fluorescence emission curves of the sample and the standard, A and AStd are the absorbance of the sample and the standard and n are the refractive indices of the solvent used for the sample and the standard, respectively. Commercially available tetraphenylporphyrin TPP (Std) (ΦF = 0.10 in toluene) was employed as the standard. The absorbance of the solutions at the excitation wavelength was in the range of 0.02. Singlet oxygen quantum yields were determined based on the relative phosphorescence emissions of singlet oxygen generated by a reference and by each one of the porphyrins, using a method described elsewhere. Briefly, a modified Applied Photophysics LKS.60 flash photolysis spectrometer with a Hamamatsu NIR photomultiplier for detection and HP Infinium (500 MHz, 1GSas^-1) or Tektronix DPO 7254 (2.5 GHz, 40GSas^-1) oscilloscopes were used. The adaptation of this spectrometer allowed for the detection of singlet oxygen phosphorescence at room temperature. This emission was detected using a Hamamatsu R5509–42 photomultiplier, cooled to 193 K in a liquid nitrogen chamber. […] The modification of the spectrometer for time-resolved singlet oxygen phosphorescence measurements involved the interposition of a Melles Griot cold mirror (03MCS005), which reflects more than 99% of the incident light in the 400–700 nm range, and of a Scotch RG665 filter. A 600 line diffraction grating was mounted in place of a standard one. […] Solutions of photosensitizers were prepared with matched absorbances close to 0.2 at 355 nm. […]

[5] = Singlet oxygen quantum yield by phosphorescence at 1270 nm; format: physicochemical; details: EtOH, phenalenone as reference
Protocol: as §2

[6] = UV/Vis absorption spectra, molar absorption coefficients; format: physicochemical; details: EtOH; for Absorption λmax, B(0,0): Soret band
Protocol: All commercial chemicals and reagents were of analytical grade and were purchased from Sigma-Aldrich. UV/Vis absorption spectra were recorded in a Hewlett Packard HP8453 spectrophotometer. Solutions containing samples of photosensitizers were dissolved in the selected solvent in quartz cuvettes. Using measured absorbance for various concentrations of porphyrin in ethanol, the molar absorption coefficients were determined from Beer’s law.

[7] = reference compound, in ethanol; cited from earlier work
[8] = parameters: method as in earlier work; details: non-halogenated standard, in toluene; cited from earlier work

HSA, sequence (P02768 25-609): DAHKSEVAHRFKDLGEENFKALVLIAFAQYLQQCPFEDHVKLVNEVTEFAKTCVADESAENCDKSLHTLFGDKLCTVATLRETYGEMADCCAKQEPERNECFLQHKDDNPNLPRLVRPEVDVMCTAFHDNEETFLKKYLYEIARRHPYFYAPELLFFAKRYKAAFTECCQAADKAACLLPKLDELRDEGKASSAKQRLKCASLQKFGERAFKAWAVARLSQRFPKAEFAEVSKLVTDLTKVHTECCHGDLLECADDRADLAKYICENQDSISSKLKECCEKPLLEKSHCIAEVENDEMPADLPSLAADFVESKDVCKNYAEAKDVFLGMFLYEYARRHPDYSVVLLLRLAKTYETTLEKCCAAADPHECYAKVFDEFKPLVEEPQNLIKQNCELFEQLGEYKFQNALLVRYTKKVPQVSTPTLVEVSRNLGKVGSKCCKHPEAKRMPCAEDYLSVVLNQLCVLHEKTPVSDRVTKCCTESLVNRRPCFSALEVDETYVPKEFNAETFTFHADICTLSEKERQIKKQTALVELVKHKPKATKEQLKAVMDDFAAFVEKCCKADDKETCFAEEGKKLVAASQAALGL

| SMILES | logP [2] | Decrease in survival / bacteria CFU killing [3] | KSV (Stern-Volmer constant), HSA (HSA) | n (number of binding sites), HSA (HSA) | Fluorescence quantum yield ΦF [4] | Singlet oxygen quantum yield ΦΔ [5] | Absorption λmax, Qx (0,1) [6] [nm] | Absorption λmax, Qx(0,0) [6] [nm] | Absorption λmax, Qy (0,0) [6] [nm] | Absorption λmax, Qy (0,1) [6] [nm] | Absorption λmax, B(0,0) [6] [nm] | other results |
| --- | --- | --- | --- | --- | --- | --- | --- | --- | --- | --- | --- | --- |
| C=CC1=C(C)c2cc3[nH]c(cc4nc(cc5[nH]c(cc1n2)c(C)c5CCC(=O)O)C(CCC(=O)O)=C4C)c(C)c3C=C [PpIX] |  |  |  |  |  |  |  |  |  |  |  | Photostability (Soret band absorbance during irradiation) [1]: more prone to photooxidation |
| O=S(=O)(O)c1ccc(Cl)c(-c2c3nc(c(-c4c(Cl)ccc(S(=O)(=O)O)c4Cl)c4ccc([nH]4)c(-c4c(Cl)ccc(S(=O)(=O)O)c4Cl)c4nc(c(-c5c(Cl)ccc(S(=O)(=O)O)c5Cl)c5ccc2[nH]5)C=C4)C=C3)c1Cl [Cl2POH, 5,10,15,20-tetrakis(2,6-dichloro-3-sulfophenyl)porphyrin] | -1.8 | 1.5–2 logs | 4.66 10^5M^-1 | 1 | 0.015 | 0.98 | 592 | 646 | 546 | 514 | 420 | Decrease in survival (E. coli (K12)): 1.5–2 logs |
| O=C1C=Cc2cccc3cccc1c23 [phenalenone] |  |  |  |  |  |  |  |  |  |  |  | Singlet oxygen quantum yield ΦΔ [7]: 0.95 ± 0.02 |
| C1=Cc2nc1c(-c1ccccc1)c1nc(c(-c3ccccc3)c3ccc([nH]3)c(-c3ccccc3)c3ccc([nH]3)c2-c2ccccc2)C=C1 [TPP, tetraphenylporphyrin] |  |  |  |  |  |  |  |  |  |  |  | Fluorescence quantum yield ΦF [8]: 0.10 |
| CCNS(=O)(=O)c1ccc(Cl)c(-c2c3nc(c(-c4c(Cl)ccc(S(=O)(=O)NCC)c4Cl)c4ccc([nH]4)c(-c4c(Cl)ccc(S(=O)(=O)NCC)c4Cl)c4nc(c(-c5c(Cl)ccc(S(=O)(=O)NCC)c5Cl)c5ccc2[nH]5)C=C4)C=C3)c1Cl [Cl2PEt, 5,10,15,20-tetrakis(2,6-dichloro-3-N-ethylsulfamoylphenyl)porphyrin] | 1.84 | up to 3 logs | 6.62 10^5M^-1 | 1 | 0.017 | 0.85 | 592 | 646 | 546 | 514 | 418 |  |

— paper PMC5634595, “Properties of halogenated and sulfonated porphyrins relevant for the selection of photosensitizers in anticancer and antimicrobial therapies” (PLoS ONE, 2017)
